Experimental data: patent US6841701B2, “Inhibitors for the blood-clotting factor Xa” (Curacyte AG, priority 2000, dated 2005)
Where a name gives a salt, the structure may show the parent alone. Read-outs that look alike come from different tables or passages of the source.

Assays:
F Xa = F Xa (Homo sapiens, UniProt P00742); settings: cited from earlier work
human citrate plasma [1] = assay: Inhibition of the coagulation of human plasma: activated partial thromboplastin time (aPTT); format: biochemical
Description: (§1) Determination of the Inhibition of Coagulation
(§2) For the determination of the prothrombin time (PT), 100 μl of thromboplastin (Dade, Unterschleiβheim) and 100 μl of inhibitor, dissolved in CaCl2 (0.05 M, 5% ethanol) were incubated at 37° C. for 2 min and the coagulation was started by addition of 100 μl of human citrate plasma. For the determination of the activated partial thromboplastin time (aPTT), 100 μl of human citrate plasma were incubated with 100 μl of aPTT reagent (Roche Diagnostics, Mannheim) at 37° C. for 3 min and the coagulation was started by addition of 100 μl of inhibitor, dissolved in CaCl2 (0.05 M, 5% ethanol). The coagulation times were determined using the Thrombotrack coagulometer (Immuno, Heidelberg).

human citrate plasma [2] = assay: Inhibition of the coagulation of human plasma: prothrombin time (PT); format: biochemical
Description: as §1, §2

Chain of F Xa (P00742 235-488 limits assumed): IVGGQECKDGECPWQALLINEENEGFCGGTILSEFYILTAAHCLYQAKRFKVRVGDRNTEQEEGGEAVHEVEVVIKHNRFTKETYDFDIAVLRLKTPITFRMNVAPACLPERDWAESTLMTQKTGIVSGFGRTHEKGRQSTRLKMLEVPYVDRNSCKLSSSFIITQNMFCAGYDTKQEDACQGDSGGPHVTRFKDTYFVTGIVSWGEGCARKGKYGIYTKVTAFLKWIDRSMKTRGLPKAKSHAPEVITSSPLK
Chain of F Xa (P00742 41-179 partner limits assumed): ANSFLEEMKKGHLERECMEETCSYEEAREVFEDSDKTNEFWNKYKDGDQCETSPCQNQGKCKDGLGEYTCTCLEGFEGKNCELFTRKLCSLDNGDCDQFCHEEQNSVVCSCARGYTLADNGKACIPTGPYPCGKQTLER

For `N=C(N)c1ccc(C=C2CCCCC(=Cc3ccc(C(=N)N)cc3)C2=O)cc1` [BABCH], the Ki (F Xa; literature) is given as 0.013 µM.
For `N=C(N)c1ccc(CNC(=O)CNC(=O)[C@@H](COCc2ccccc2)NS(=O)(=O)Cc2ccccc2)cc1` [Benzylsulfonyl-D-Ser(Bz)-Gly-4-amidinobenzylamide×TFA], the “Prolongation of the coagulation time (%) aPTT” value (“Prolongation … (%) aPTT” below) (human citrate plasma [1]; Concentration 0.1 μM) was 111%, the “Prolongation … (%) aPTT” value (human citrate plasma [1]; Concentration 0.21 μM) was 122% and the “Prolongation … (%) aPTT” value (human citrate plasma [1]; Concentration 0.42 μM) was 146%. For the same compound, the “Prolongation … (%) aPTT” value (human citrate plasma [1]; Concentration 0.83 μM) was 185%, the “Prolongation … (%) aPTT” value (human citrate plasma [1]; Concentration 1.7 μM) was 260% and the “Prolongation … (%) aPTT” value (human citrate plasma [1]; Concentration 3.3 μM) was 385%. For the same compound, the “Prolongation of the coagulation time (%) PT” value (from here on “Prolongation … (%) PT”) (human citrate plasma [2]; Concentration 0.1 μM) was 119%, the “Prolongation … (%) PT” value (human citrate plasma [2]; Concentration 0.21 μM) was 127% and the “Prolongation … (%) PT” value (human citrate plasma [2]; Concentration 0.42 μM) was 153%. The “Prolongation … (%) PT” value (human citrate plasma [2]; Concentration 0.83 μM) was 198%, the “Prolongation … (%) PT” value (human citrate plasma [2]; Concentration 1.7 μM) was 266% and the “Prolongation … (%) PT” value (human citrate plasma [2]; Concentration 3.3 μM) was 386%.
In the case of `N=C(N)c1ccc(CNC(=O)[C@@H]2CCN2C(=O)[C@H](NCC(=O)O)C2CCCCC2)cc1` [melagatran], the Ki (F Xa; literature (Gustafsson et al. 1996)) is given as 2.8 µM.
